We go through 90 compounds from a melting point compilation (Tetko et al.; mined from patent text by program, amines drawn as free bases though some values may be those of a salt).

Molecules are shown by their SMILES.

`CCCC(=O)NC(C)c1nnc(C)[nH]c1=O` (stereo not given): the melting point was in the range of 235 to 237 °C.

In turn, `CCOC(=O)CCC1CCN(C(=O)[C@H](C)NC(=O)c2ccc(C(O)=NN)cc2)CC1` gave a melting point of 194 to 195 °C.

Consider `O=C(O)[C@]12CCCC[C@H]1CCc1ccccc12` (relative stereo), for which the melting point fell in the range of 142 to 144 °C.

For `C#CCOC(=O)N(I)C(C)C(=O)O` (stereo not given), the melting point lay within 95 to 99 °C.

Compound `COC(=O)[C@@H]1[C@@H](C(=O)O)[C@H]2C=C[C@@H]1C2` had a melting point of 78 to 79 °C.

In the case of `COC(=O)CCCN1CCC(NC(=O)c2ccccc2)CC1`, the melting point was 116 °C.

Regarding `CCn1cc(C(=O)O)c(=O)c2cc(F)c(F)c(C)c21`, the melting point lay in the range of 219 to 221 °C.

Take `O=S(CCCCl)Cc1ccccc1` (stereo not given): the melting point was 70 to 71 °C.

In turn, `O=C1C=CC(=O)c2c1cccc2[N+](=O)[O-]` registered a melting point of 161 °C.

For `N#Cc1ccc2c(c1)C[C@H](NS(=O)(=O)c1ccccc1)CN2C(=O)c1ccccc1`, the melting point is 174 to 175 °C.

`COc1ccc(C(=O)Nc2nc3ccc(N4CCN(C)CC4)cc3c(NCc3ccccc3)c2C#N)cc1` registered a melting point of 173 °C.

Turning to `O=C(O)C1CCCCC1(O)C(=O)c1ccccc1` (stereo not given), the melting point fell in the range of 165 to 167 °C.

In the case of `CCOC(=O)COc1ccc(N2CCN(C(=O)OC(C)(C)C)CC2)cc1C=O`, the melting point fell in the range of 93 to 94 °C.

With `CCNCC1CN(c2c(F)cc3c(=O)c(C(=O)O)cn(C4CC4)c3c2F)CC1C` (stereo not given), the melting point lay in the range of 224 to 226 °C.

In the case of `COc1ccc(S(=O)(=O)c2nccn2C(C)C)cc1`, the melting point is 84 to 86 °C.

For the compound `COc1nc2ccc(Br)cc2cc1C(Br)c1ccccc1` (stereo not given), the melting point lay in the range of 85 to 86 °C.

`CCc1cccc(CC(=O)O)c1OCCCc1cn(-c2ncc(C(F)(F)F)cc2Cl)nc1C(C)C` returned a melting point of 93 to 95 °C.

Take `CC(C)C(=O)Nc1ccoc1`: the melting point amounted to 120 °C.

`COC(=O)NC1=NCC(c2ccc(F)cc2)N1C` (stereo not given) came in with a melting point of 153 to 155 °C.

In turn, `CC(C)c1ccccc1SCc1cn(-c2ccc(S(C)(=O)=O)cc2)c(-c2ccc(Cl)cc2)n1` had a melting point of 68 to 70 °C.

`Cc1oc(-c2ccccc2)nc1COc1ccc(/C=C/CO)cn1` yielded a melting point of 116 to 117 °C.

Compound `Cn1c(=O)c(Oc2ccc(F)cc2F)cc2cnc(S(C)(=O)=O)nc21` returned a melting point of 177 to 178 °C.

As for `COc1nc2cc(F)cc(C)c2nc1OC`, the melting point is 107 to 109 °C.

`CCOC(=O)c1sc(NC(=O)c2cc(-c3cccs3)ccc2O)nc1-c1ccccc1` yielded a melting point of 213 to 214 °C.

`CC(C)OC(=O)Cn1c(=O)n(C)c(=O)n(-c2cc(N=c3sc(=O)n4n3CCC=C4)c(F)cc2Cl)c1=O` gave a melting point of 99 to 111 °C.

Compound `COC(=O)C(NCC(=O)c1ccccc1)C(C)C` (racemic) displayed a melting point of 32.5 to 50.8 °C.

`COC(=O)C1CCn2c1cc(Br)c2C(=O)c1ccccc1` (stereo not given): the melting point was 93 °C.

As for `O=[N+]([O-])c1cc2c(cc1Oc1ccccc1)CCC2`, the melting point was 41 °C.

With `CCOC(=O)c1ccc(-c2cn3cc(C)ccc3n2)cc1`, the melting point is 228 to 230 °C.

`Nc1ncc(Br)cc1Cl`: the melting point was 94 to 96 °C.

In turn, `O=[N+]([O-])c1ccc(S(=O)(=O)NCc2ccccc2)c([N+](=O)[O-])c1` yielded a melting point of 150 to 151 °C.

In turn, `COc1cc(-c2nc3ccc(OCCCl)cc3n2Cc2ccccc2)cc(OC)c1OC` registered a melting point of 129 °C.

`CC1CN(c2c(F)c(F)c3c(=O)c(C(=O)O)cn(C4CC4)c3c2F)CCN1` (stereo not given): the melting point lay within 235 to 237 °C.

The compound `Clc1cc(Cl)c(Oc2c(Cl)ncnc2Cl)c(Cl)c1` registered a melting point of 104 to 105 °C.

With `Cc1nnc2cc(-c3ccncc3)ccn12`, the melting point fell in the range of 223 to 226 °C.

Compound `FC(F)(F)c1ccc(-c2ccc3nncn3n2)cc1` showed a melting point of 160 to 161 °C.

In turn, `CCc1nc2c(C)cc(C)nc2n1Cc1ccc(Nc2ccccc2)cc1` registered a melting point of 151 to 152 °C.

As for `NC(=O)c1sc2nccc(N3CCN(c4ccccn4)CC3)c2c1N`, the melting point fell in the range of 266 to 270 °C.

`O=c1c2ccccc2sc2ccc(SC(F)(F)F)cc12` returned a melting point of 126 to 127 °C.

As to `O=C(Nc1ccc(C(F)(F)F)cc1)Nc1cccc(S(=O)(=O)NCCN2CCOCC2)c1`, the melting point fell in the range of 62 to 65 °C.

Consider `COC(=O)C1(CCCCl)Sc2cc(OC)ccc2OCC1=O` (stereo not given), for which the melting point was in the range of 64 to 65 °C.

Compound `NC(=O)[C@H]1CN(c2ccc(C3=CCOCC3)c(F)c2)C(=O)O1` returned a melting point of 164 to 169 °C.

`COC(=O)[C@]1(OS(C)(=O)=O)C[C@H](CC(C)C)[C@@H]2O[C@@H]2C1` had a melting point of 120 to 121 °C.

Consider `CC(Cc1ccc(CCNS(=O)(=O)c2ccccc2)cc1)C(=O)O` (stereo not given), for which the melting point fell in the range of 113 to 115 °C.

With `O=C(NO)c1ccc(CNC(=O)c2[nH]c(-c3ccc(O)cc3)cc2-c2ccsc2)cc1`, the melting point is 121 to 122 °C.

`CC(=O)NCc1ccc(-c2ccc([N+](=O)[O-])cc2)o1` returned a melting point of 149 to 151 °C.

For the compound `COC(=O)c1cc(CO)ccc1OCc1nc(-c2ccco2)oc1C`, the melting point lay in the range of 131 to 132 °C.

`Cc1cccc(Sc2ccc3c(c2)CCC2N(C)C(=O)CCC32C)c1` (single isomer, unassigned; (+)) came in with a melting point of 103 to 104 °C.

`Cc1ccccc1Cn1c(=O)on(C(=O)N(c2ccc(Cl)cc2)C(C)C)c1=O` gave a melting point of 90 to 91 °C.

Regarding `CNC(=O)c1cc2c(nc(C)n2C)c2c1C(=O)CC1(Cc3ccccc3C1)N2`, the melting point stood at 261 °C.

`O=C1c2ccccc2C(=O)c2sc(-c3cccs3)nc21`: the melting point is greater than 260 °C.

Turning to `CSCC[C@H](N)C(=O)NC(=O)C(CSC(C)=O)Cc1ccccc1` (stereo not given in full), the melting point was 119 to 121 °C.

The compound `CC(=O)N1OCC(=O)N(CCl)C1c1ccccc1` (stereo not given) yielded a melting point of 171 to 172 °C.

In turn, `Cc1oc(-c2ccccc2)nc1Cc1cc2cc(C=O)ccc2o1` yielded a melting point of 116 to 118 °C.

`CC(C)(C)c1cc(Br)c(O)c(C=O)c1Cl` showed a melting point of 103 to 105 °C.

For the compound `O=C1c2ccccc2C(=O)c2oc(-c3ccccc3Cl)nc21`, the melting point is 216 °C.

Consider `Cc1cccc(-c2ccc(OS(=O)(=O)C(F)(F)F)cc2C=O)c1`, for which the melting point was in the range of 60 to 62 °C.

`COc1ccc(S(=O)(=O)N2CCc3cccc(NC(=O)c4ccncc4)c32)cc1` came in with a melting point of 219 to 220 °C.

As to `O=C(O)c1ccc(=O)n(NC(=O)c2cccnc2)c1`, the melting point was greater than 250 °C.

Regarding `CCOC(=O)c1cc2cc(Oc3ccc(S(C)(=O)=O)cc3)cc(OCc3ccccc3)c2[nH]1`, the melting point is 148 to 149 °C.

With `CCCCCCCCCCCCCCCCCCN1C(=O)CCC1=O`, the melting point came to 75.8 °C.

Turning to `NCCCCOc1cccc(CN2CCCCC2)c1`, the melting point lay in the range of 92 to 93 °C.

Regarding `Cc1ccccc1C(NCC(=O)Nc1c(C(C)C)cccc1C(C)C)c1ccccc1` (stereo not given), the melting point fell in the range of 163 to 164 °C.

`CCc1ccc(-c2nnc(N3CCC(O)CC3)nc2-c2ccc(CC)cc2)cc1` showed a melting point of 164 to 166 °C.

In the case of `COc1ccc(-n2nc(C(F)(F)F)cc2-c2ccc(S(C)(=O)=O)cc2)cc1Br`, the melting point lay within 164 to 166 °C.

Consider `O=C(OCc1c(Cl)ccc2cc(Cl)cnc12)c1ccccc1[N+](=O)[O-]`, for which the melting point was 152 °C.

`Cc1ccc(Nc2ccnc(-n3nc(C)cc3C)n2)cc1`: the melting point was 52 to 55.6 °C.

Compound `CC(CCC(=O)NC(C)(C)C)C1CC=C2C3=C(CCC21C)C1(C)CCC(O)C(C)(C)C1CC3` (stereo not given) had a melting point of 171 to 176 °C.

As to `Nc1cc(Cl)c(Cl)cc1NCCO`, the melting point was found to be 120 °C.

Regarding `COC(=O)c1ncn(C2OC(COC(=O)c3ccccc3)C(OC(=O)c3ccccc3)C2OC(=O)c2ccccc2)n1` (stereo not given), the melting point lay within 137 to 139 °C.

`CCCCCCCCCCCCCCCCCCOc1cc(N)cc(OCCCCC(=O)OC)c1`: the melting point lay within 57 to 59 °C.

For `Cn1ncnc1COc1nn2c(-c3ccccc3F)nncc2c1C(C)(C)C`, the melting point came out at 128 °C.

In the case of `CCOC(=O)c1cc(C)nc2c(O)cccc12`, the melting point was 71.8 °C.

Regarding `CC(=O)N[C@H](Cc1ccc(C#N)cc1)C(=O)O`, the melting point is 173 to 175 °C.

`FC(F)(F)C(F)(F)Cc1ccc(CBr)cc1` showed a melting point of 62 to 63 °C.

Regarding `CCCN(CCC)S(=O)(=O)c1ccc(C(CC2CCCC2)C(=O)Nc2nc3ccc(OC)nc3s2)cc1` (stereo not given), the melting point lay in the range of 64 to 66 °C.

For the compound `CCCOc1ccccc1-c1nc2nc(-c3ccccc3)ncc2c(=O)[nH]1`, the melting point was 203 to 204 °C.

On to `CCOC(=O)c1ccc(C#CC2(O)CN3CCC2CC3)cc1` (stereo not given), for which the melting point was 176 to 177 °C.

`CS(=O)(=O)c1ncnn1CC(O)(Cc1ccccc1Cl)C1(Cl)CC1` (stereo not given) had a melting point of 125 to 128 °C.

Consider `CCCCc1nn(CCC)c(C(=O)O)c1Cc1ccc(C2(C(=O)O)CC=CC2)s1`, for which the melting point was 121 to 122 °C.

Compound `CC(C)Oc1ccc(CCCCOc2cc(CCC(=O)O)n(-c3ccccc3)n2)c(Oc2ncc(C(F)(F)F)cc2Cl)c1` gave a melting point of 75 to 77 °C.

The compound `Cc1noc(NS(=O)(=O)c2ccccc2-c2ccc(-c3ccon3)cc2)c1C` returned a melting point of 85 to 90 °C.

Take `COC(=O)COC1C(O)C(CO)OC(Oc2ccc(N)cc2)C1O` (stereo not given): the melting point is 155 °C.

Take `Nc1ncc(-c2cccc(Nc3ccc(-c4ccoc4)cc3N)c2)cn1`: the melting point is 208 to 209 °C.

As to `CC(=O)Oc1c(CN(C)C)c2c(c3c1OC(C)(C)C3)C(c1ccccc1)=NC(C)(C)C2`, the melting point was in the range of 125 to 126 °C.

`CCOC(=O)c1csc(-c2ccc([N+](=O)[O-])cc2)n1` showed a melting point of 156 to 158 °C.

Regarding `COc1nc(C)c(N)cc1C`, the melting point lay within 39.8 to 41 °C.

The compound `COc1cc2ncnc(N3CCc4cc(OCc5ccccc5)ccc43)c2cc1OC` yielded a melting point of 181 to 182 °C.

`CC(C(=O)O)N(C(=O)OC(C)(C)C)c1ccc(N)cc1` (stereo not given) displayed a melting point of 128 to 133 °C.

In the case of `CN(CCCCC(=O)O)c1ccc(Br)cc1C=O`, the melting point is 72 to 73 °C.

For orientation: melting point means the temperature of the solid-liquid transition.
